For 19 compounds, EC50 and IC50 results are on record in patent publication US20260242391A1 (priority 2023, published 2026).

Each structure is given as a SMILES string. Where only a bound is given, the exact number is not on record here.

In series [1] the test system is HL-60. In words: HL-60 differentiation potency. It is filed as cell-based. Particulars: Homo sapiens.
The nature of series [2]: in vitro. To be noted: human.

As usually defined, the EC50 is the concentration that produces a half-maximal response. The IC50 is the concentration that gives 50% inhibition. Low readings indicate inhibition by little substance, high ones a need for much substance. In series [1], `C[C@H]1[C@@H](OC[C@H]2CC[C@@H](C(=O)NCC3(C(=O)O)CCC3)CC2)O[C@@H]2O[C@@]3(C)CC[C@H]4[C@H](C)CC[C@@H]1[C@@]24OO3` [Compound 297, 1-(((1R,4s)-4-((((3R,5aS,6R,8aS, 9R,10S,12R, 12aR)-3,6,9-trimethyldeca-hydro-12H-3,12-epoxy[1,2]dioxepino[4,3-i]isochromen-10-yl)oxy)methyl)cyclohexane-1-carboxamido)methyl) cyclobutane-1-carboxylic acid] came in with a 50% effective concentration (EC50) of 31.7 nM. In addition, the IC50 in series [2] amounted to 17700 nM.
In the same order, the values of `C[C@H]1[C@@H](Oc2ccc(C(=O)N[C@H]3CCC(=O)NC3=O)cc2)O[C@@H]2O[C@@]3(C)CC[C@H]4[C@H](C)CC[C@@H]1[C@@]24OO3` [Compound 198, N-((S)-2,6-dioxopiperidin-3-yl)-4-(((3R,5aS,6R,8aS, 9R,10S,12R, 12aR)-3,6,9-trimethyldeca-hydro-12H-3,12-epoxy[1,2]dioxepino[4,3-i]isochromen-10-yl)oxy)benzamide] are 47.9 nM and 4000 nM.
Consider `C[C@H]1[C@@H](O[C@H]2C[C@@H](C(=O)N[C@H](C(=O)O)c3ccc(C(F)(F)F)cc3)C2)O[C@@H]2O[C@@]3(C)CC[C@H]4[C@H](C)CC[C@@H]1[C@@]24OO3` [Compound 257, (S)-2-(4-(trifluoromethyl)phenyl)-2-((1R,3R)-3-(((3R,5aS,6R,8aS, 9R,10S,12R, 12aR)-3,6,9-trimethyldeca-hydro-12H-3,12-epoxy[1,2]dioxepino[4,3-i]isochromen-10-yl)oxy)cyclo-butane-1-carboxamido) acetic acid], for which the half-maximal effective concentration (EC50) in series [1] worked out at 3210 nM. The compound also showed an IC50 in series [2] of 11500 nM.
`C[C@H]1[C@@H](Oc2cc(F)cc(OCC(=O)O)c2)O[C@@H]2O[C@@]3(C)CC[C@H]4[C@H](C)CC[C@@H]1[C@@]24OO3` [Compound 220, 2-(3-fluoro-5-(((3R,5aS,6R,8aS, 9R,10S,12R, 12aR)-3,6,9-trimethyldeca-hydro-12H-3,12-epoxy[1,2]dioxepino[4,3-i]isochromen-10-yl)oxy)phenoxy) acetic acid]: the EC50 in series [1] was 70.8 nM. In series [2], this compound yielded an IC50 of 1880 nM.
In series [1], `C[C@H]1[C@@H](O[C@H]2CC[C@@H](C(=O)N3CC(C(=O)O)C3)CC2)O[C@@H]2O[C@@]3(C)CC[C@H]4[C@H](C)CC[C@@H]1[C@@]24OO3` [Compound 259, 1-((1R,4s)-4-(((3R,5aS,6R,8aS, 9R,10S,12R, 12aR)-3,6,9-trimethyldeca-hydro-12H-3,12-epoxy[1,2]dioxepino[4,3-i]isochromen-10-yl)oxy)cyclo-hexane-1-carbonyl) azetidine-3-carboxylic acid] yielded an EC50 of 172 nM. Also, the IC50 in series [2] (HL-60 cells) is 10800 nM.
`C[C@H]1[C@@H](OCc2ccc(C(=O)NC(C)(C)C(=O)O)cc2)O[C@@H]2O[C@@]3(C)CC[C@H]4[C@H](C)CC[C@@H]1[C@@]24OO3` [Compound 284, 2-methyl-2-(4-((((3R,5aS,6R,8aS, 9R,10S,12R, 12aR)-3,6,9-trimethyldeca-hydro-12H-3,12-epoxy[1,2]dioxepino[4,3-i]isochromen-10-yl)oxy)methyl)benzamido) propanoic acid]: in series [1], the EC50 was 524 nM. Also, in series [2], the 50% inhibitory concentration (IC50) is above 20000 nM.
In the same order, the values of `C[C@H]1[C@@H](OCc2c(F)cc(C(=O)O)cc2Cl)O[C@@H]2O[C@@]3(C)CC[C@H]4[C@H](C)CC[C@@H]1[C@@]24OO3` [Compound 215, 3-chloro-5-fluoro-4-((((3R,5aS,6R,8aS, 9R,10S,12R, 12aR)-3,6,9-trimethyldeca-hydro-12H-3,12-epoxy[1,2]dioxepino[4,3-i]isochromen-10-yl)oxy)methyl) benzoic acid] are 66.5 nM and 5510 nM.
In the same order, the values of `C[C@H]1[C@@H](Oc2ccc(C(=O)N[C@H](C(=O)O)c3ccccc3)cc2)O[C@@H]2O[C@@]3(C)CC[C@H]4[C@H](C)CC[C@@H]1[C@@]24OO3` [Compound 234, (S)-2-phenyl-2-(4-(((3R,5aS,6R,8aS, 9R,10S,12R, 12aR)-3,6,9-trimethyldeca-hydro-12H-3,12-epoxy[1,2]dioxepino[4,3-i]isochromen-10-yl)oxy)benzamido) acetic acid] are 112 nM and 1270 nM.
In the same order, the values of `C[C@H]1[C@@H](Oc2ccc(C(=O)NC3(C(=O)O)COC3)cc2Cl)O[C@@H]2O[C@@]3(C)CC[C@H]4[C@H](C)CC[C@@H]1[C@@]24OO3` [Compound 265, 3-(3-chloro-4-(((3R,5aS,6R,8aS, 9R,10S,12R, 12aR)-3,6,9-trimethyldeca-hydro-12H-3,12-epoxy[1,2]dioxepino[4,3-i]isochromen-10-yl)oxy)benzamido) oxetane-3-carboxylic acid] are 6450 nM and 17200 nM.
Turning to `C[C@H]1[C@@H](Oc2ccc(CC(=O)N[C@H](C(=O)O)C3CC3)cc2)O[C@@H]2O[C@@]3(C)CC[C@H]4[C@H](C)CC[C@@H]1[C@@]24OO3` [Compound 301, (S)-2-cyclopropyl-2-(2-(4-(((3R,5aS,6R,8aS, 9R,10S,12R, 12aR)-3,6,9-trimethyldeca-hydro-12H-3,12-epoxy[1,2]dioxepino[4,3-i]isochromen-10-yl)oxy)phenyl)acetamido) acetic acid], the EC50 in series [1] came to 63.5 nM. In series [2], this compound came in with a half-inhibitory concentration (IC50) above 20000 nM.
On to `C[C@H]1[C@@H](OCc2ccc(C(=O)NC34CCC(C(=O)O)(C3)C4)cc2)O[C@@H]2O[C@@]3(C)CC[C@H]4[C@H](C)CC[C@@H]1[C@@]24OO3` [Compound 293, 4-(4-((((3R,5aS,6R,8aS, 9R,10S,12R, 12aR)-3,6,9-trimethyldeca-hydro-12H-3,12-epoxy[1,2]dioxepino[4,3-i]isochromen-10-yl)oxy)methyl)benzamido) bicyclo[2.1.1] hexane-1-carboxylic acid], for which the midpoint of the response in series [1], the EC50, lay at 43.2 nM. In series [2], this compound came in with an IC50 above 20000 nM.
In the same order, the values of `C[C@H]1[C@H](OCC23[C@H]4[C@H]5[C@@H]2[C@H]2[C@@H]3[C@@H]4C52C(=O)O)O[C@@H]2O[C@@]3(C)CC[C@H]4[C@H](C)CC[C@@H]1[C@@]24OO3` (stereo partly drawn) [Compound 260, (2R,3R,5R,6R,7R, 8R)-4-((((3R,5aS,6R,8aS, 9R,10R,12R, 12aR)-3,6,9-trimethyldeca-hydro-12H-3,12-epoxy[1,2]dioxepino[4,3-i]isochromen-10-yl)oxy)methyl) cubane-1-carboxylic acid] are 422 nM and above 20000 nM.
In the same order, the values of `C[C@H]1[C@@H](Oc2cc(Cl)cc(CC(=O)O)c2)O[C@@H]2O[C@@]3(C)CC[C@H]4[C@H](C)CC[C@@H]1[C@@]24OO3` [Compound 186, 2-(3-chloro-5-(((3R,5aS,6R,8aS, 9R,10S,12R, 12aR)-3,6,9-trimethyldeca-hydro-12H-3,12-epoxy[1,2]dioxepino[4,3-i]isochromen-10-yl)oxy)phenyl) acetic acid] are 62.4 nM and 4000 nM.
In the same order, the values of `C[C@H]1[C@@H](OCc2ccc(C(=O)N3CCC(C(=O)O)CC3)cc2)O[C@@H]2O[C@@]3(C)CC[C@H]4[C@H](C)CC[C@@H]1[C@@]24OO3` [Compound 277, 1-(4-((((3R,5aS,6R,8aS, 9R,10S,12R, 12aR)-3,6,9-trimethyldeca-hydro-12H-3,12-epoxy[1,2]dioxepino[4,3-i]isochromen-10-yl)oxy)methyl)benzoyl) piperidine-4-carboxylic acid] are 1780 nM and above 20000 nM.
Compound `C[C@H]1[C@@H](Oc2ccc(CC(=O)N[C@H]3CC[C@@H](C(=O)O)C3)cc2)O[C@@H]2O[C@@]3(C)CC[C@H]4[C@H](C)CC[C@@H]1[C@@]24OO3` [Compound 239, (1R,3S)-3-(2-(4-(((3R,5aS,6R,8aS, 9R,10S,12R, 12aR)-3,6,9-trimethyldeca-hydro-12H-3,12-epoxy[1,2]dioxepino[4,3-i]isochromen-10-yl)oxy)phenyl)acetamido)cyclo-pentane-1-carboxylic acid] registered an EC50 in series [1] of 21.9 nM. In series [2], this compound yielded an IC50 of 16200 nM.
In the same order, the values of `C[C@@H]1CC[C@H]2[C@@H](C)C(OCc3ccc(C(=O)O)cc3C(F)(F)F)O[C@@H]3O[C@@]4(C)CC[C@@H]1[C@]32OO4` (stereo partly drawn) [Compound 197, 3-(trifluoromethyl)-4-((((3R,5aS,6R,8aS, 9R,12R, 12aR)-3,6,9-trimethyldeca-hydro-12H-3,12-epoxy[1,2]dioxepino[4,3-i]isochromen-10-yl)oxy)methyl) benzoic acid] are 66 nM and 5380 nM.
Take `C[C@H]1[C@@H](O[C@H]2CC[C@@H](C(=O)N[C@H](C(=O)O)C3CCC3)CC2)O[C@@H]2O[C@@]3(C)CC[C@H]4[C@H](C)CC[C@@H]1[C@@]24OO3` [Compound 252, (S)-2-cyclobutyl-2-((1R,4R)-4-(((3R,5aS,6R,8aS, 9R,10S,12R, 12aR)-3,6,9-trimethyldeca-hydro-12H-3,12-epoxy[1,2]dioxepino[4,3-i]isochromen-10-yl)oxy)cyclohexane-1-carboxamido) acetic acid]: in series [1], the EC50 amounted to 242 nM. In series [2], this compound yielded a 50% inhibitory concentration (IC50) above 20000 nM.
In the same order, the values of `C[C@H]1[C@@H](OC[C@H]2CCC(C(=O)O)CO2)O[C@@H]2O[C@@]3(C)CC[C@H]4[C@H](C)CC[C@@H]1[C@@]24OO3` (stereo partly drawn) [Compound 212, (6R)-6-((((3R,5aS,6R,8aS, 9R,10S,12R, 12aR)-3,6,9-trimethyldeca-hydro-12H-3,12-epoxy[1,2]dioxepino[4,3-i]isochromen-10-yl)oxy)methyl) tetrahydro-2H-pyran-3-carboxylic acid] are 20500 nM and above 20000 nM.
Compound `C[C@H]1[C@@H](Oc2ccc(C(=O)N[C@H](C(=O)O)C3CCCCC3)cc2)O[C@@H]2O[C@@]3(C)CC[C@H]4[C@H](C)CC[C@@H]1[C@@]24OO3` [Compound 231, (S)-2-cyclohexyl-2-(4-(((3R,5aS,6R,8aS, 9R,10S,12R, 12aR)-3,6,9-trimethyldeca-hydro-12H-3,12-epoxy[1,2]dioxepino[4,3-i]isochromen-10-yl)oxy)benzamido)acetic acid] had a half-maximal effective concentration (EC50) in series [1] of 17 nM. This compound also had a concentration for half-maximal inhibition (IC50) in series [2] of 80 nM.
